Earlier results in patent US11058116B1, “Composition for stimulating plant growth and resistance to stress factors” (AGRATEK PTE. LTD., priority 2018, dated 2021).

How the values were obtained:
mold = conditions: pre-treatment of seeds with a solution
seeds = conditions: pre-treatment of seeds with a solution

O=C([O-])CCC(=O)[O-].[Mg+2] [succinate of magnesium, magnesium succinate (Mg2C4H4O4)]
reduces the seeds infection with mold (mold): 86% | germination (increased to) (seeds): 99%
